Laboratory results published in patent US8952024B2, “Herbicidal pyrimidone derivatives” (E I du Pont de Nemours and Company, priority 2009, dated 2015).

Key:
Assay type in all cases: in vivo
[1] = system: Surinam grass (Brachiaria decumbens); test: Test B pre-/postemergence plant response; details: for Surinam Grass plant response rating (0 to 100 scale): 62 g ai/ha, 0 is no effect, 13 to 15 days
How it was run: (§1)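 Greenhouse herbicide screen. Pre- and postemergence (1- to 4-leaf) spray of compound in solvent/surfactant mixture; loam–sand soil for pre, peat/vermiculite medium for post. Visual control rating 0–100 at 13 to 15 days after treatment.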

[2] = system: bermudagrass (Cynodon dactylon); test: Test B pre-/postemergence plant response; details: for Bermudagrass plant response rating (0 to 100 scale): 62 g ai/ha, 0 is no effect, 13 to 15 days
How it was run: as §1

[3] = system: downy bromegrass (Bromus tectorum); test: Test B pre-/postemergence plant response; details: for Bromegrass, Downy plant response rating (0 to 100 scale): 62 g ai/ha, 0 is no effect, 13 to 15 days
How it was run: as §1

[4] = system: lambsquarters (Chenopodium album); test: Test B pre-/postemergence plant response; details: for Lambsquarters plant response rating (0 to 100 scale): 62 g ai/ha, 0 is no effect, 13 to 15 days
How it was run: as §1

[5] = system: pigweed (Amaranthus retroflexus); test: Test B pre-/postemergence plant response; details: for Pigweed plant response rating (0 to 100 scale): 62 g ai/ha, 0 is no effect, 13 to 15 days
How it was run: as §1

[6] = system: wheat (Triticum aestivum); test: Test B pre-/postemergence plant response; details: for Wheat plant response rating (0 to 100 scale): 62 g ai/ha, 0 is no effect, 13 to 15 days
How it was run: as §1

[7] = system: woolly cupgrass (Eriochloa villosa); test: Test B pre-/postemergence plant response; details: for Cupgrass, Woolly plant response rating (0 to 100 scale): 62 g ai/ha, 0 is no effect, 13 to 15 days
How it was run: as §1

[8] = system: yellow nutsedge (Cyperus esculentus); test: Test B pre-/postemergence plant response; details: for Nutsedge, Yellow plant response rating (0 to 100 scale): 62 g ai/ha, 0 is no effect, 13 to 15 days
How it was run: as §1

[9] = system: barnyardgrass (Echinochloa crus-galli); test: Test B flooded paddy test; details: for Plant response rating, Flood, Barnyardgrass: 250 g ai/ha, flooded paddy test, visual rating on 0 to 100 scale (0 no effect, 100 complete control) after 13 to 15 days; for Plant response rating, Barnyardgrass: Flood (flooded paddy test), 13 to 15 days; for Barnyardgrass plant response rating: Flood, 31 g ai/ha, scale 0 to 100 (0 no effect, 100 complete control)
How it was run: (§2)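 Seedlings reaching 2 leaves are flooded 3 cm deep; test material is delivered to that water, which stays at the same depth. Plants remain in a greenhouse 13–15 days and are then scored by eye versus controls from 0 to 100.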

[10] = system: ducksalad (Heteranthera limosa); test: Test B flooded paddy test; details: for Plant response rating, Flood, Ducksalad: 250 g ai/ha, flooded paddy test, visual rating on 0 to 100 scale (0 no effect, 100 complete control) after 13 to 15 days; for Plant response rating, Ducksalad: Flood (flooded paddy test), 13 to 15 days; for Ducksalad plant response rating: Flood, 31 g ai/ha, scale 0 to 100 (0 no effect, 100 complete control)
How it was run: as §2

[11] = system: rice (Oryza sativa); test: Test B flooded paddy test; details: for Plant response rating, Flood, Rice: 250 g ai/ha, flooded paddy test, visual rating on 0 to 100 scale (0 no effect, 100 complete control) after 13 to 15 days; for Plant response rating, Rice: Flood (flooded paddy test), 13 to 15 days; for Rice plant response rating: Flood, 31 g ai/ha, scale 0 to 100 (0 no effect, 100 complete control)
How it was run: as §2

[12] = system: umbrella sedge (Cyperus difformis); test: Test B flooded paddy test; details: for Plant response rating, Flood, Sedge, Umbrella: 250 g ai/ha, flooded paddy test, visual rating on 0 to 100 scale (0 no effect, 100 complete control) after 13 to 15 days; for Plant response rating, Sedge, Umbrella: Flood (flooded paddy test), 13 to 15 days; for Sedge, Umbrella plant response rating: Flood, 31 g ai/ha, scale 0 to 100 (0 no effect, 100 complete control)
How it was run: as §2

[13] = 31 g ai/ha, postemergence, scale 0 to 100, 0 is no effect, 100 is complete control
[14] = postemergence, 100 is complete control
[15] = Postemergence, 250 g ai/ha, scale 0 to 100 (0 no effect, 100 complete control)
[16] = Postemergence, 125 g ai/ha, visual rating after 13 to 15 days, scale 0 (no effect) to 100 (complete control)
[17] = 62 g ai/ha, scale of 0 to 100 where 0 is no effect and 100 is complete control
[18] = 125 g ai/ha, scale 0 to 100, 0 is no effect, 100 is complete control

Compound: COCCn1c(-c2ccccc2)ncc(C(=O)C2=C(O)CCCC2=O)c1=O [Compound 85]
- Plant response rating, Surinam Grass [1, 13]: 75
- Surinam Grass plant response rating (0 to 100 scale) [1, 14]: 85
- Plant response rating, Surinam Grass [1, 15]: 85
- Plant response rating, Bermudagrass [2, 13]: 85
- Bermudagrass plant response rating (0 to 100 scale) [2, 14]: 85
- Plant response rating, Bermudagrass [2, 16]: 90
- Plant response rating, Bermudagrass [2, 15]: 90
- Plant response rating, Bromegrass, Downy [3, 13]: 0
- Bromegrass, Downy plant response rating (0 to 100 scale) [3, 14]: 5
- Plant response rating, Bromegrass, Downy [3, 16]: 25
- Plant response rating, Bromegrass, Downy [3, 15]: 30
- Plant response rating, Lambsquarters [4, 13]: 98
- Lambsquarters plant response rating (0 to 100 scale) [4, 14]: 98
- Plant response rating, Lambsquarters [4, 15]: 100
- Plant response rating, Pigweed [5, 13]: 100
- Pigweed plant response rating (0 to 100 scale) [5, 14]: 100
- Plant response rating, Pigweed [5, 15]: 100
- Plant response rating, Wheat [6, 13]: 0
- Wheat plant response rating (0 to 100 scale) [6, 14]: 5
- Plant response rating, Wheat [6, 15]: 35
- Plant response rating, Cupgrass, Woolly [7, 13]: 75
- Cupgrass, Woolly plant response rating (0 to 100 scale) [7, 14]: 85
- Plant response rating, Cupgrass, Woolly [7, 16]: 90
- Plant response rating, Cupgrass, Woolly [7, 15]: 90
- Plant response rating, Nutsedge, Yellow [8, 13]: 75
- Nutsedge, Yellow plant response rating (0 to 100 scale) [8, 14]: 85
- Plant response rating, Nutsedge, Yellow [8, 15]: 85
- Plant response rating, Flood, Barnyardgrass [9]: 65
- Plant response rating, Barnyardgrass [9, 17]: 25
- Plant response rating, Barnyardgrass [9, 18]: 55
- Barnyardgrass plant response rating [9]: 25
- Plant response rating, Flood, Ducksalad [10]: 65
- Plant response rating, Ducksalad [10, 17]: 50
- Plant response rating, Ducksalad [10, 18]: 60
- Ducksalad plant response rating [10]: 40
- Plant response rating, Flood, Rice [11]: 20
- Plant response rating, Rice [11, 17]: 0
- Plant response rating, Rice [11, 18]: 15
- Rice plant response rating [11]: 0
- Plant response rating, Flood, Sedge, Umbrella [12]: 80
- Plant response rating, Sedge, Umbrella [12, 17]: 75
- Plant response rating, Sedge, Umbrella [12, 18]: 80
- Sedge, Umbrella plant response rating [12]: 50

Compound: CCCCn1c(-c2ccccc2)ncc(C(=O)C2=C(O)CCCC2=O)c1=O [Compound 86]
- Plant response rating, Surinam Grass [1, 13]: 80
- Surinam Grass plant response rating (0 to 100 scale) [1, 14]: 95
- Plant response rating, Surinam Grass [1, 15]: 100
- Plant response rating, Bermudagrass [2, 13]: 85
- Bermudagrass plant response rating (0 to 100 scale) [2, 14]: 90
- Plant response rating, Bermudagrass [2, 16]: 95
- Plant response rating, Bermudagrass [2, 15]: 95
- Plant response rating, Bromegrass, Downy [3, 13]: 10
- Bromegrass, Downy plant response rating (0 to 100 scale) [3, 14]: 10
- Plant response rating, Bromegrass, Downy [3, 16]: 35
- Plant response rating, Bromegrass, Downy [3, 15]: 50
- Plant response rating, Lambsquarters [4, 13]: 100
- Lambsquarters plant response rating (0 to 100 scale) [4, 14]: 100
- Plant response rating, Lambsquarters [4, 15]: 100
- Plant response rating, Pigweed [5, 13]: 98
- Pigweed plant response rating (0 to 100 scale) [5, 14]: 100
- Plant response rating, Pigweed [5, 15]: 100
- Plant response rating, Wheat [6, 13]: 5
- Wheat plant response rating (0 to 100 scale) [6, 14]: 35
- Plant response rating, Wheat [6, 15]: 45
- Plant response rating, Cupgrass, Woolly [7, 13]: 75
- Cupgrass, Woolly plant response rating (0 to 100 scale) [7, 14]: 85
- Plant response rating, Cupgrass, Woolly [7, 16]: 95
- Plant response rating, Cupgrass, Woolly [7, 15]: 95
- Plant response rating, Nutsedge, Yellow [8, 13]: 65
- Nutsedge, Yellow plant response rating (0 to 100 scale) [8, 14]: 70
- Plant response rating, Nutsedge, Yellow [8, 15]: 85
- Plant response rating, Flood, Barnyardgrass [9]: 60
- Plant response rating, Barnyardgrass [9, 17]: 40
- Plant response rating, Barnyardgrass [9, 18]: 50
- Barnyardgrass plant response rating [9]: 30
- Plant response rating, Flood, Ducksalad [10]: 65
- Plant response rating, Ducksalad [10, 17]: 55
- Plant response rating, Ducksalad [10, 18]: 55
- Ducksalad plant response rating [10]: 0
- Plant response rating, Flood, Rice [11]: 40
- Plant response rating, Rice [11, 17]: 0
- Plant response rating, Rice [11, 18]: 20
- Rice plant response rating [11]: 0
- Plant response rating, Flood, Sedge, Umbrella [12]: 85
- Plant response rating, Sedge, Umbrella [12, 17]: 30
- Plant response rating, Sedge, Umbrella [12, 18]: 70
- Sedge, Umbrella plant response rating [12]: 20
